From patent publication US20240116922A1, “IMIDAZO[1,2-A]PYRIDINE DERIVATIVES AS IRAK4 INHIBITORS AND THEIR USE IN THE TREATMENT OF DISEASE” (BIOGEN MA INC., priority 2020, published 2024)
≈ marks a conversion by molar mass, not a printed value.

Assays:
IRAK4 = IRAK4 (Homo sapiens (Human), UniProt Q9NWZ3); experiment: IRAK4 MSD biochemical assay (2-hour 1 mM ATP); details: 0.1 nM IRAK4, 1 mM ATP, 2 hour at room temperature
Method: The 2-hour 1 mM ATP Biochemical Assay employed a MesoScale Detection (MSD) format.
The activity was quenched with 11 μl of 70 mM EDTA, pH 8.
To detect the phosphorylated biotinylated peptide substrate, 30 μl of the quenched reaction mixture was added to equivalent wells of a 384 well streptavidin coated MesoScale plate (Meso Scale Discovery #L21SA-1). After a 1 hour incubation of the plate for 1 hour at room temperature with gentle mixing, the plate wells were washed 3 times with 50 mM Tris, pH 7.5, 150 mM NaCl, 0.02% Tween-20.
A 25 μl volume of 1:500 anti-P-Threonine Rabbit polyclonal Antibody plus 1:500 Goat-anti-Rabbit Sulfo Tag Antibody (Meso Scale Discovery R32AB-1) in 50 mM Tris, pH 7.5, 150 mM NaCl, 0.02% Tween-20 plus 2% BSA was then added to each well. After a 1-hour incubation of the plate for 1 hour at room temperature with gentle mixing, the plate wells were washed, 3 times with 50 mM Tris, pH 7.5, 150 mM NaCl, 0.02% Tween-20.

MDR1 = MDR1 (Homo sapiens (Human), UniProt P08183); experiment: in vitro; details: MDCK-MDR1
Sequence of MDR1 (P08183 whole entry): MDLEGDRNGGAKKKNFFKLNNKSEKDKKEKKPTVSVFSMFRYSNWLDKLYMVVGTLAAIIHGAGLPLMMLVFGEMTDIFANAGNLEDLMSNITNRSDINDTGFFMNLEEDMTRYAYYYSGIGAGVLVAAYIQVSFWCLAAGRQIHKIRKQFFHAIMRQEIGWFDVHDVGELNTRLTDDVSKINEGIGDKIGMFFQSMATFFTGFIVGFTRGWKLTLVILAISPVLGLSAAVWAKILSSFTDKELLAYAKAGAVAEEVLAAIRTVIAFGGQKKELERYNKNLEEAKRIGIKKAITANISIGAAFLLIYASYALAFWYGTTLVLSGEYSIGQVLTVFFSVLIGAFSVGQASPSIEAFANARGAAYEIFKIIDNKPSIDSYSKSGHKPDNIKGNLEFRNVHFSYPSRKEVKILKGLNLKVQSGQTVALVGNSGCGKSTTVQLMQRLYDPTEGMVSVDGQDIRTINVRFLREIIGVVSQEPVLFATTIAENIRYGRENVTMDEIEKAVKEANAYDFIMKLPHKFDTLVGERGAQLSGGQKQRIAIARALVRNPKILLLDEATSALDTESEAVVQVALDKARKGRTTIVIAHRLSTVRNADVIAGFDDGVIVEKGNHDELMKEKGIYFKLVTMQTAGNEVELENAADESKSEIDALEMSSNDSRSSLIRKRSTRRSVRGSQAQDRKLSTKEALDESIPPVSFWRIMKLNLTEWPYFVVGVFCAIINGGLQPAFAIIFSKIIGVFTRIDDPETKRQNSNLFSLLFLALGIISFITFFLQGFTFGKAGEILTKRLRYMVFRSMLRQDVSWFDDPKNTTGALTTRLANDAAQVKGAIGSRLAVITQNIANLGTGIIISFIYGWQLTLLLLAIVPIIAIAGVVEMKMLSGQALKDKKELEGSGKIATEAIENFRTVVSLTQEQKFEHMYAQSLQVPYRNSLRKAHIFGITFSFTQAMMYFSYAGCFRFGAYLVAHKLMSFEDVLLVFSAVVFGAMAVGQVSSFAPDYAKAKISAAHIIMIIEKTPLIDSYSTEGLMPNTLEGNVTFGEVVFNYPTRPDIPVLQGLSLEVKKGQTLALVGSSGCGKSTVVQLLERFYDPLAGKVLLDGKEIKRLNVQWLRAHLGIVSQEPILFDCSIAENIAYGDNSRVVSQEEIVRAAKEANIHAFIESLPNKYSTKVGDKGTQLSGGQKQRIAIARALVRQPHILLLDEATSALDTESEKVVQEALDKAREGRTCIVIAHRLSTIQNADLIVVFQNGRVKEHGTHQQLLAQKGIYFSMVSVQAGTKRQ

[1] = Kinetic solubility assay (CLND), pH 6.8; type: physicochemical; details: aqueous buffer, kinetic from dmso stock; potassium phosphate buffer pH 6.8, 2% DMSO, 24 hours at ambient temperature

Sequence of IRAK4 (Q9NWZ3 whole entry): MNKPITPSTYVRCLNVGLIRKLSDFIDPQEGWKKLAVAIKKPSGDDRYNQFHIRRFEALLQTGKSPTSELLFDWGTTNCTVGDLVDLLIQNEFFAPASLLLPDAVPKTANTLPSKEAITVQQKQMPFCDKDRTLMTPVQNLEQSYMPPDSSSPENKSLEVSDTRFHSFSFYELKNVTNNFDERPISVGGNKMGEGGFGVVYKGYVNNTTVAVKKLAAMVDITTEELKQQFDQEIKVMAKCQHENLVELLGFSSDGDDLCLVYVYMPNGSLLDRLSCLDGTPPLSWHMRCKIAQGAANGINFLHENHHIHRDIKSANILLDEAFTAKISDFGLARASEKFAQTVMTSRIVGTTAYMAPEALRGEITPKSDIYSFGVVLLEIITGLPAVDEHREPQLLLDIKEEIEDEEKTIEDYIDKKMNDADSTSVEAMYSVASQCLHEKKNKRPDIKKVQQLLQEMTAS

Row | SMILES | IC50 (IRAK4) [nM] | efflux ratio at 120 min, 1 μM (MDR1) | solubility kinetic at 24 h [1] [µg/mL]
1 | CC[C@@H](C)Oc1cc2nc(C34COC(CF)(C3)C4)cn2cc1C(=O)Nc1cccn(C2CC2)c1=O (single isomer, unassigned) [Example 14] | 1.3 | 4.8 | 75.7 (≈ 158 µM)
2 | C[C@@]12CC[C@@](c3cn4cc(C(=O)Nc5cccn(C6CC6)c5=O)c(OC5CCC5)nc4n3)(CO1)C2 (single isomer, unassigned) [Example 16] | 0.3 | 2.8 | 5.2 (≈ 10.9 µM)
3 | C[C@]12CC[C@](c3cn4cc(C(=O)Nc5cccn(C6CC6)c5=O)c(OC5CCC5)nc4n3)(CO1)C2 (single isomer, unassigned) [Example 17] | 0.5 | 3.9 | 8.5 (≈ 17.9 µM)
4 | CC[C@@H](C)Oc1cc2nc([C@@]34CC[C@@](C)(C3)OC4)cn2cc1C(=O)Nc1cccn(C2CC2)c1=O (single isomer, unassigned) [Example 21] | 0.9 | 3.2 | 61.3 (≈ 129 µM)
5 | CC[C@H](C)Oc1cc2nc([C@@]34CC[C@@](C)(C3)OC4)cn2cc1C(=O)Nc1cccn(C2CC2)c1=O (single isomer, unassigned) [Example 22] | 0.3 | 4.3 | 69 (≈ 145 µM)
6 | C[C@]12CC[C@](c3cn4cc(C(=O)Nc5cccn(C6CC6)c5=O)c(OC5CCC5)cc4n3)(CO1)C2 (single isomer, unassigned) [Example 26] | 0.7 | 4.1 | 65.3 (≈ 138 µM)
7 | CC(C)Oc1cc2nc([C@@]34CC[C@@H](C3)OC4)cn2cc1C(=O)Nc1cccn(C2CC2)c1=O (single isomer, unassigned) [Example 39] | 0.2 | 6.8 | 68.9 (≈ 154 µM)
8 | CC(C)Oc1cc2nc([C@]34CC[C@H](C3)OC4)cn2cc1C(=O)Nc1cccn(C2CC2)c1=O (single isomer, unassigned) [Example 40] | 0.4 | 7.5 | 70.2 (≈ 157 µM)
9 | CC[C@@H](C)Oc1nc2nc(C34COC(C)(C3)C4)cn2cc1C(=O)Nc1cccn([C@H]2C[C@H]2F)c1=O (single isomer, unassigned) [Example 58] | 0.4 | 9 | 72.1 (≈ 150 µM)
10 | CC[C@H](C)Oc1nc2nc(C34COC(C)(C3)C4)cn2cc1C(=O)Nc1cccn([C@H]2C[C@H]2F)c1=O (single isomer, unassigned) [Example 60] | 0.2 | 9 | 55.5 (≈ 115 µM)
11 | CC[C@H](C)Oc1nc2nc(C34COC(C)(C3)C4)cn2cc1C(=O)Nc1cccn(C2CC2)c1=O (single isomer, unassigned) [Example 64] | 0.5 | 5 | 49.6 (≈ 107 µM)
12 | CC(C)Oc1c(C(=O)Nc2cccn(C3CC3)c2=O)cn2cc([C@]34CC[C@](C)(C3)OC4)nc2c1F (single isomer, unassigned) [Example 68] | 4.3 | 2.2 | 53.6 (≈ 112 µM)
13 | CC(C)Oc1cc2nc([C@@H]3COCCO3)cn2cc1C(=O)Nc1cccn(C2CC2)c1=O (single isomer, unassigned) [Example 69] | 0.3 | 4.7 | 6.1 (≈ 13.9 µM)
14 | CC(C)Oc1cc2nc([C@H]3COCCO3)cn2cc1C(=O)Nc1cccn(C2CC2)c1=O (single isomer, unassigned) [Example 70] | 1.2 | 3.9 | 9.9 (≈ 22.6 µM)
15 | CC(C)Oc1c(C(=O)Nc2cccn([C@H]3C[C@H]3F)c2=O)cn2cc(C34COC(C)(C3)C4)nc2c1F (single isomer, unassigned) [Example 93] | 0.6 | 4.9 | 62.8 (≈ 130 µM)
16 | CC12CC(c3cn4cc(C(=O)Nc5cccn([C@@H]6C[C@@H]6F)c5=O)c(OC5CCC5)nc4n3)(CO1)C2 (single isomer, unassigned) [Example 113] | 12.6 | 8.7 | 59.5 (≈ 124 µM)
17 | CC12CC(c3cn4cc(C(=O)Nc5cccn([C@H]6C[C@H]6F)c5=O)c(OC5CCC5)nc4n3)(CO1)C2 (single isomer, unassigned) [Example 114] | 0.3 | 10.4 | 68.6 (≈ 143 µM)

Row | SMILES | IC50 (IRAK4) [nM] | efflux ratio at 120 min, 1 μM (MDR1) | solubility kinetic at 24 h [1] [µg/mL]
18 | CC(C)Oc1cc2nc([C@@]34CC[C@@](C)(C3)OC4)cn2cc1C(=O)Nc1cccn([C@H]2C[C@@H]2F)c1=O (single isomer, unassigned) [Example 117] | 0.7 | 3.9 | 23.1 (≈ 48.1 µM)
19 | CC(C)Oc1cc2nc([C@]34CC[C@](C)(C3)OC4)cn2cc1C(=O)Nc1cccn([C@@H]2C[C@H]2F)c1=O (single isomer, unassigned) [Example 118] | 0.9 | 5.1 | 56.2 (≈ 117 µM)
20 | CC(C)Oc1c(C(=O)Nc2cccn([C@H]3C[C@H]3F)c2=O)cn2cc([C@]34CC[C@](C)(C3)OC4)nc2c1F (single isomer, unassigned) [Example 127] | 0.7 | 3.4 | 32.6 (≈ 65.4 µM)
21 | CC(C)Oc1nc2nc([C@]34CC[C@](C)(C3)OC4)cn2cc1C(=O)Nc1cccn([C@H]2CC23CC3)c1=O (single isomer, unassigned) [Example 152] | 0.8 | 1.4 | 24.9 (≈ 50.9 µM)
22 | CC[C@H](C)Oc1cc2nc(C34COC(C)(C3)C4)cn2cc1C(=O)Nc1cccn([C@H]2C[C@H]2F)c1=O (single isomer, unassigned) [Example 161] | 0.1 | 8.6 | 54.6 (≈ 114 µM)
23 | O=C(Nc1cccn([C@H]2C[C@H]2F)c1=O)c1cn2cc(C34COC(C3)C4)nc2nc1OC1CCC1 (single isomer, unassigned) [Example 167] | 0.2 | 2.3 | 19.2 (≈ 41.2 µM)
24 | CC12CC(c3cn4cc(C(=O)Nc5cccn([C@H]6C[C@H]6F)c5=O)c(OC5CCC5)cc4n3)(CO1)C2 (single isomer, unassigned) [Example 173] | 0.2 | 10.9 | 22.6 (≈ 47.2 µM)
25 | CC(C)Oc1cc2nc([C@@]34CC[C@@](C)(C3)OC4)cn2cc1C(=O)Nc1cccn([C@@H]2C[C@H]2C)c1=O (single isomer, unassigned) [Example 191] | 0.4 | 1.5 | 48.5 (≈ 102 µM)
26 | CC(C)Oc1cc2nc([C@@]34CC[C@@](C)(C3)OC4)cn2cc1C(=O)Nc1cccn([C@H]2C[C@@H]2C)c1=O (single isomer, unassigned) [Example 192] | 0.7 | 1.7 | 60.6 (≈ 127 µM)
27 | CC12CCC(c3cn4cc(C(=O)Nc5cccn(C6CC6)c5=O)c(OC5CCC5)cc4n3)(CC1)CO2 [Example 1, 7-cyclobutoxy-N-(1-cyclopropyl-2-oxo-1,2-dihydropyridin-3-yl)-2-(1-methyl-2-oxabicyclo[2.2.2]octan-4-yl)imidazo[1,2-a]pyridine-6-carboxamide] | 0.2 | 1.7 | 56 (≈ 115 µM)
28 | CCC12CC(c3cn4cc(C(=O)Nc5cccn(C6CC6)c5=O)c(OC(C)C)cc4n3)(CO1)C2 [Example 2, N-(1-cyclopropyl-2-oxo-1,2-dihydropyridin-3-yl)-2-(1-ethyl-2-oxabicyclo[2.1.1]hexan-4-yl)-7-isopropoxyimidazo[1,2-a]pyridine-6-carboxamide] | 0.4 | 3.3 | 65.7 (≈ 142 µM)
29 | CCC(C)Oc1cc2nc([C@@]34CC[C@@](C)(C3)OC4)cn2cc1C(=O)Nc1cccn(C2CC2)c1=O (stereo partly drawn) [Example 20, 7-(sec-butoxy)-N-(1-cyclopropyl-2-oxo-1,2-dihydropyridin-3-yl)-2-((1S,4R)-1-methyl-2-oxabicyclo[2.2.1]heptan-4-yl)imidazo[1,2-a]pyridine-6-carboxamide] | 0.7 | 2.8 | 68.1 (≈ 143 µM)
30 | CC12CCC(c3cn4cc(C(=O)Nc5cccn(C6CC6)c5=O)c(OC5CCC5)cc4n3)(CO1)C2 (stereo not drawn) [Example 23, 7-cyclobutoxy-N-(1-cyclopropyl-2-oxo-1,2-dihydropyridin-3-yl)-2-(1-methyl-2-oxabicyclo[2.2.1]heptan-4-yl)imidazo[1,2-a]pyridine-6-carboxamide] | 0.5 | 2.8 | 61.9 (≈ 130 µM)
31 | C[C@@H](CF)Oc1cc2nc(C34COC(C)(C3)C4)cn2cc1C(=O)Nc1cccn(C2CC2)c1=O [Example 28, (S)—N-(1-cyclopropyl-2-oxo-1,2-dihydropyridin-3-yl)-7-((1-fluoropropan-2-yl)oxy)-2-(1-methyl-2-oxabicyclo[2.1.1]hexan-4-yl)imidazo[1,2-a]pyridine-6-carboxamide] | 0.2 | 18.2 | 62.6 (≈ 134 µM)
32 | C[C@H](CF)Oc1cc2nc(C34COC(C)(C3)C4)cn2cc1C(=O)Nc1cccn(C2CC2)c1=O [Example 29, (R)—N-(1-cyclopropyl-2-oxo-1,2-dihydropyridin-3-yl)-7-((1-fluoropropan-2-yl)oxy)-2-(1-methyl-2-oxabicyclo[2.1.1]hexan-4-yl)imidazo[1,2-a]pyridine-6-carboxamide] | 0.6 | 13.6 | 60.2 (≈ 129 µM)
33 | CC(C)Oc1cc2nc(C34COC(C3)C4)cn2cc1C(=O)Nc1cccn(C2CC2)c1=O [Example 34, 2-(2-oxabicyclo[2.1.1]hexan-4-yl)-N-(1-cyclopropyl-2-oxo-1,2-dihydropyridin-3-yl)-7-isopropoxyimidazo[1,2-a]pyridine-6-carboxamide] | 1 | 11.1 | 39.2 (≈ 90.2 µM)
